Holding throughout (format): cell-based
Test [1] concerns the target T1, Human GPR120 short form (Homo sapiens, UniProt Q5NUL3).
T1 construct: expressed in transfected cells
T1 sequence (Q5NUL3 1-361): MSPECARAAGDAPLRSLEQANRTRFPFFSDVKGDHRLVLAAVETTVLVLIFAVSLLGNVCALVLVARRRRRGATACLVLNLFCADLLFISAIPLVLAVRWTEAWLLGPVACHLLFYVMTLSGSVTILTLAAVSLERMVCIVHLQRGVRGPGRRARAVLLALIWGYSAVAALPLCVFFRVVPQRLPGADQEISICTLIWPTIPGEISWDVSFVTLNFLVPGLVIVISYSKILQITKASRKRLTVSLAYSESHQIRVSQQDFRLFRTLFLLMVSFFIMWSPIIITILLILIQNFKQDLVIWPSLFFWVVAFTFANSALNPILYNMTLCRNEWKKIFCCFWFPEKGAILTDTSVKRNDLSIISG
In words: Human GPR120 calcium flux assay, Procedure Calcium A (2500 cells/well). In short, it runs like this:
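HEK293 cells stably expressing human GPR120 short isoform (NM_001195755.1), 2500 cells/well, serum-starved 1 h at 37 °C and loaded with Fluo-4 NW plus probenecid. FLIPR fluorescence read for 300 s after compound addition; response = Fmax−Fmin. EC50 from four-parameter concentration–response fit.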
A general note: Calcium flux is commonly read through the fluorescence of an indicator in the cells.

Test [2] concerns the target T1, Human GPR120 short form. Kind of test: Human GPR120 calcium flux assay, Procedure Calcium B (4200 cells/well). The essentials:
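HEK293 cells stably expressing human GPR120 (NM_001195755.1), 4200 cells/well, starved 1 h and loaded with Fluo-4 NW plus probenecid. Ligand-evoked calcium flux read on FLIPR for 300 s after a 10 s baseline. RFU = Fmax−Fmin; EC50 from four-parameter concentration-response fit.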

A further test deals with T2, human GPR40 (Homo sapiens, UniProt O14842).
T2 construct: expressed in transfected cells
T2 sequence (O14842 whole entry): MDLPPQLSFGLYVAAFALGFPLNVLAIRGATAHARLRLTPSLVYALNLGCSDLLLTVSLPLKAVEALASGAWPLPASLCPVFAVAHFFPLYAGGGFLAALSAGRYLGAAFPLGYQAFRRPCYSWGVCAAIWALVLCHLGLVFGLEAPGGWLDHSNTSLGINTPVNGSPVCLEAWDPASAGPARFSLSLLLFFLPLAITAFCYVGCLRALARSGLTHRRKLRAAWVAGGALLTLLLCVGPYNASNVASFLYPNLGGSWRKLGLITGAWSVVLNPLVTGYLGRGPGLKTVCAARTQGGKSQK
In words: GPR40 calcium flux assay, human GPR40. The following applies: HEK293 cells stably expressing GPR40; table does not say human or rat. The essentials:
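Cells preincubated 1 h at 37° C. in HBSS, 20 mM HEPES, 0.1% BSA, then Fluo 8 calcium dye 30 min at 37° C. and 15 min at room temperature.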

Consider 26 molecules from US11230526B1, “Cylcoalkenyl derivatives useful as agonists of the GPR120 and/or GPR40 receptors” (Janssen Pharmaceutica NV, priority 2018, dated 2022).

Several values for one entry are separate records, joined by “and”; a condition that tells them apart may be missing. Identical values can stand only once.

Broadly, the EC50 is the concentration that produces a half-maximal response. Regarding `Cc1ccc(C2=C(COc3ccc(CCC(=O)O)c(F)c3F)CCC2)cc1N` [Compound 93, 3-(4-((2-(3-amino-4-methylphenyl)cyclopent-1-en-1-yl)methoxy)-2,3-difluorophenyl)Propanoic Acid], the values for the half-maximal effective concentration (EC50) at Human GPR120 short form [1], at Human GPR120 short form [2] and on human GPR40 were 0.427 µM, 0.643 µM and over 5 µM, respectively.

As to `Cc1ccc(C2=C(COc3ccc(CCC(=O)O)c(F)c3F)CCC2)cc1` [Compound 94, 3-(2,3-difluoro-4-((2-(p-tolyl)cyclopent-1-en-1-yl)methoxy)phenyl)Propanoic Acid], the results for the EC50 at Human GPR120 short form [1], on Human GPR120 short form [2] and at human GPR40 were 0.4 µM, 0.023 µM and over 5 µM, respectively.

`Cc1ccc(C2=C(COc3c(F)cc(CCC(=O)O)cc3F)CCC2)cc1` [Compound 95, 3-(3,5-difluoro-4-((2-(p-tolyl)cyclopent-1-en-1-yl)methoxy)phenyl)Propanoic Acid]: the half-maximal effective concentration (EC50) was 0.378 µM on Human GPR120 short form [1], 0.032 µM at Human GPR120 short form [2] and over 5 µM at human GPR40.

For `Cc1ccc(C2=C(COc3ccc(CCC(=O)O)cc3C)CCC2)cn1` [Compound 102, 3-(3-methyl-4-((2-(6-methylpyridin-3-yl)cyclopent-1-en-1-yl)methoxy)phenyl)Propanoic Acid], the EC50 is 0.781 µM on Human GPR120 short form [1], 0.134 µM on Human GPR120 short form [2] and over 5 µM at human GPR40.

With `Cc1c(CCC(=O)O)ccc(OCC2=C(c3ncccn3)CCC2)c1C` [Compound 105, 3-[2,3-dimethyl-4-[(2-pyrimidin-2-ylcyclopenten-1-yl)methoxy]phenyl]Propanoic Acid], the figures for the EC50 at Human GPR120 short form [1], at Human GPR120 short form [2] and on human GPR40 were 1.63 µM, 0.183 µM and over 5 µM, respectively.

On to `Cc1ccc(C2=C(COc3ccc(CCC(=O)O)c(C)c3C)CCC2)cc1C` [Compound 106, 3-(4-((2-(3,4-dimethylphenyl)cyclopent-1-en-1-yl)methoxy)-2,3-dimethylphenyl)Propanoic Acid], for which the half-maximal effective concentration (EC50) at Human GPR120 short form [1] was 0.572 µM; on Human GPR120 short form [2] it was 0.567 µM; on human GPR40 it was over 5 µM.

For the molecule `Cc1c(CCC(=O)O)ccc(OCC2=C(c3cccnc3)CCC2)c1C` [Compound 108, 3-[2,3-dimethyl-4-[[2-(3-pyridyl)cyclopenten-1-yl]methoxy]phenyl]Propanoic Acid], the EC50 was 1.05 µM on Human GPR120 short form [1], 0.233 µM at Human GPR120 short form [2] and over 5 µM on human GPR40.

In the case of `Cc1ccc(C2=C(COc3c(F)cc(CCC(=O)O)cc3F)CCC2)cc1[N+](=O)[O-]` [Compound 109, 3-(3,5-difluoro-4-((2-(4-methyl-3-nitrophenyl)cyclopent-1-en-1-yl)methoxy)phenyl)Propanoic Acid], the concentration for a half-maximal effect (EC50) at Human GPR120 short form [1] was 0.959 µM; on Human GPR120 short form [2], 1.29 µM; at human GPR40, over 5 µM.

As to `Cc1c(CCC(=O)O)ccc(OCC2=C(c3ccccc3Br)CCC2)c1C` [Compound 111, 3-[4-[[2-(2-bromophenyl)cyclopenten-1-yl]methoxy]-2,3-dimethyl-phenyl]Propanoic Acid], the half-maximal effective concentration (EC50) at Human GPR120 short form [1] was 0.777 µM; at Human GPR120 short form [2] it was 0.687 µM; at human GPR40, over 5 µM.

Consider `O=C(O)CCc1c(F)c(F)c(OCC2=C(c3ccc(Cl)cc3)CCC2)c(F)c1F` [Compound 122, 3-[4-[[2-(4-chlorophenyl)cyclopenten-1-yl]methoxy]-2,3,5,6-tetrafluoro-phenyl]Propanoic Acid], for which the concentration giving a half-maximal response (EC50) was 0.453 µM on Human GPR120 short form [1], 0.247 µM at Human GPR120 short form [2] and over 5 µM at human GPR40.

In the case of `Cc1c(CCC(=O)O)ccc(OCC2=C(c3ccccc3F)CCC2)c1C` [Compound 124, 3-[4-[[2-(2-fluorophenyl)cyclopenten-1-yl]methoxy]-2,3-dimethyl-phenyl]Propanoic Acid], the half-maximal effective concentration (EC50) at Human GPR120 short form [1] is 0.308 µM; at Human GPR120 short form [2] it was 0.067 µM; on human GPR40, over 5 µM.

Regarding `Cc1cc(OCC2=C(c3ccc(Cl)cc3)CCC2)ccc1CCC(=O)O` [Compound 131, 3-[4-[[2-(4-chlorophenyl)cyclopenten-1-yl]methoxy]-2-methyl-phenyl]Propanoic Acid], the EC50 was determined as 0.533 µM on Human GPR120 short form [1], 0.118 µM at Human GPR120 short form [2] and 1.99 µM on human GPR40.

Take `Cc1ccccc1C1=C(COc2ccc(CCC(=O)O)c(C)c2C)CCC1` [Compound 132, 3-[2,3-dimethyl-4-[[2-(o-tolyl)cyclopenten-1-yl]methoxy]phenyl]Propanoic Acid]: the concentration for a half-maximal effect (EC50) on Human GPR120 short form [1] was 1.09 µM; on Human GPR120 short form [2] it was 0.409 µM; on human GPR40 it was over 5 µM.

Take `Cc1c(CCC(=O)O)ccc(OCC2=C(c3ccc(Cl)cc3Cl)CCC2)c1C` [Compound 133, 3-[4-[[2-(2,4-dichlorophenyl)cyclopenten-1-yl]methoxy]-2,3-dimethyl-phenyl]Propanoic Acid]: the concentration giving a half-maximal response (EC50) on Human GPR120 short form [1] is 0.682 µM; at Human GPR120 short form [2] it was 0.344 µM; on human GPR40 it was over 5 µM.

`Cc1ccc(C2=C(COc3ccc(CCC(=O)O)c(C)c3C)CCC2)cc1N` [Compound 134, 3-(4-((2-(3-amino-4-methylphenyl)cyclopent-1-en-1-yl)methoxy)-2,3-dimethylphenyl)Propanoic Acid]: the concentration for a half-maximal effect (EC50) on Human GPR120 short form [1] was 2 µM; at Human GPR120 short form [2] it was 1.43 µM; at human GPR40, over 5 µM.

For the molecule `COc1cccc(C2=C(COc3ccc(CCC(=O)O)c(C)c3C)CCC2)c1` [Compound 141, 3-[4-[[2-(3-methoxyphenyl)cyclopenten-1-yl]methoxy]-2,3-dimethyl-phenyl]Propanoic Acid], the values for the EC50 at Human GPR120 short form [1], at Human GPR120 short form [2] and on human GPR40 were 1.06 µM, 0.256 µM and over 5 µM, respectively.

Take `Cc1c(CCC(=O)O)ccc(OCC2=C(c3ccccn3)CCC2)c1C` [Compound 147, 3-[2,3-dimethyl-4-[[2-(2-pyridyl)cyclopenten-1-yl]methoxy]phenyl]Propanoic Acid]: the results for the EC50 on Human GPR120 short form [1], on Human GPR120 short form [2] and at human GPR40 were 1.01 µM, 0.336 µM and over 5 µM, respectively.

In the case of `O=C(O)CCc1ccc(OCC2=C(c3ccc(Cl)cc3)CCC2)c(F)c1` [Compound 149, 3-[4-[[2-(4-chlorophenyl)cyclopenten-1-yl]methoxy]-3-fluoro-phenyl]Propanoic Acid], the half-maximal effective concentration (EC50) is 0.128 µM on Human GPR120 short form [1], 0.024 µM on Human GPR120 short form [2] and over 10 µM on human GPR40.

For the molecule `O=C(O)CCc1ccc(OCC2=C(c3ccc(Cl)cc3)CCC2)cc1` [Compound 153, 3-[4-[[2-(4-chlorophenyl)cyclopenten-1-yl]methoxy]phenyl]Propanoic Acid], the EC50 on Human GPR120 short form [1] is 0.319 µM; at Human GPR120 short form [2], 0.023 µM; on human GPR40, 2.95 µM.

`Cc1c(CCC(=O)O)ccc(OCC2=C(c3ccc(Cl)nc3)CCC2)c1C` [Compound 158, 3-(4-((2-(6-chloropyridin-3-yl)cyclopent-1-en-1-yl)methoxy)-2,3-dimethylphenyl)Propanoic Acid]: the values for the EC50 on Human GPR120 short form [1], at Human GPR120 short form [2] and at human GPR40 were 0.234 µM, 0.133 µM and over 5 µM, respectively.

As for `Cc1cc(CCC(=O)O)ccc1OCC1=C(c2ccc(Cl)c(F)c2)CCC1` [Compound 159, 3-(4-((2-(4-chloro-3-fluorophenyl)cyclopent-1-en-1-yl)methoxy)-3-methylphenyl)Propanoic Acid], the results for the concentration giving a half-maximal response (EC50) on Human GPR120 short form [1], at Human GPR120 short form [2] and on human GPR40 were 0.044 µM, 0.026 µM and over 5 µM, respectively.

In the case of `Cc1cc(CCC(=O)O)ccc1OCC1=C(c2ccc(Cl)cc2)CCC(F)(F)C1` [Compound 467, 3-(4-((4′-chloro-4,4-difluoro-3,4,5,6-tetrahydro-[1,1′-biphenyl]-2-yl)methoxy)-3-methylphenyl)Propanoic Acid], the values for the concentration for a half-maximal effect (EC50) at Human GPR120 short form [1], at Human GPR120 short form [2] and on human GPR40 were 0.199 µM, 0.04 µM and over 5 µM, respectively.

Regarding `Cc1c(CCC(=O)O)ccc(OCC2=C(c3ccc(Cl)cc3)CCC(F)(F)C2)c1C` [Compound 468, 3-[4-[[2-(4-chlorophenyl)-5,5-difluoro-cyclohexen-1-yl]methoxy]-2,3-dimethyl-phenyl]Propanoic Acid], the EC50 on Human GPR120 short form [1] is 0.261 µM; on Human GPR120 short form [2], 0.056 µM and 0.054 µM; on human GPR40, over 5 µM.

For the molecule `Cc1c(CCC(=O)O)ccc(OCC2=C(c3ccccc3)CCCC2)c1C` [Compound 472, 3-[2,3-dimethyl-4-[(2-phenylcyclohexen-1-yl)methoxy]phenyl]Propanoic Acid], the results for the EC50 at Human GPR120 short form [1], on Human GPR120 short form [2] and at human GPR40 were 0.406 µM, 0.032 µM and over 5 µM, respectively.

Consider `Cc1c(CCC(=O)O)ccc(OCC2=C(c3ccc(Cl)cc3)CCCC2)c1C` [Compound 474, 3-[4-[[2-(4-chlorophenyl)cyclohexen-1-yl]methoxy]-2,3-dimethyl-phenyl]Propanoic Acid], for which the results for the EC50 at Human GPR120 short form [1], on Human GPR120 short form [2] and at human GPR40 were 0.428 µM, 0.079 µM and over 5 µM, respectively.

With `O=C(O)CCc1c(F)c(F)c(OCC2=C(c3ccc(Cl)cc3)CCCC2)c(F)c1F` [Compound 479, 3-[4-[[2-(4-chlorophenyl)cyclohexen-1-yl]methoxy]-2,3,5,6-tetrafluoro-phenyl]Propanoic Acid], the concentration giving a half-maximal response (EC50) was 0.958 µM at Human GPR120 short form [1], 0.073 µM on Human GPR120 short form [2] and over 5 µM on human GPR40.
